Test system: pooled citrated plasma
Test: in vitro activated partial thromboplastin time (APTT) assay
Parameters: species or system mice
Details: hirudin at concentrations above 2 μg/mL
Experimental: The anticoagulant activity of the thrombin inhibitors disclosed herein is determined by measuring their ability to prolong clotting of human plasma in vitro using a clinical TT assay. Briefly, human plasma from healthy donors (800 μL) is mixed with a concentration range of inhibitors, clotting initiated by addition of thrombin, and clotting time measured using a coagulometer. Compounds which prolong clotting time to 30 sec at a concentration of 50 nM may be further investigated in vitro/ex vivo for APTT. In brief, pooled citrated plasma from C57BL6/J mice is pre-incubated with various concentrations (0-12 μg/mL) of inhibitors. APTT of each plasma sample is quantified following addition of a coagulation activator and CaCl2). In an ex vivo assay, mice are injected i.v. with inhibitors (fixed concentration determined from in vitro APTT) and whole blood collected into sodium citrate (˜130 μL) 0, 5, 30 and 60 min post-administration. APTT is quantified on isolated plasma using a RANDOX APTT kit, with fibrin generation monitored to measure clotting time.
We investigated the ability of the inhibitor of Example 2 (A^Aa) to prolong clotting time in an in vitro activated partial thromboplastin time (APTT) assay (FIG. 1A).

hirudin
increase in clotting time (APTT): 8 fold

Source: patent US11091535B2, “Thrombin inhibitors for treatment of stroke and related coagulative disorders” (THE UNIVERSITY OF SYDNEY, priority 2016, dated 2021)
